# Measured values reported in article PMC9095875, “Solubility measurement and thermodynamic modeling of pantoprazole sodium sesquihydrate in supercritical carbon dioxide” (Scientific Reports, 2022).
# “And” between values parts separate entries of the source, which are not always exact repeats. Identical values can stand only once. Marks after values point to notes of the source that are not given here.
# Assays:
# [1] = Solubility of solid drug in supercritical carbon dioxide (isobaric-isothermal method, UV-Vis at 290 nm); type: physicochemical; settings: for y2 × 10^4 (mole fraction): value is y2 × 10^4
# Procedure: The method utilized is considered as the isobaric-isothermal method. Each measurement is performed with high precision, during experiments; temperature is maintained at desired value within ± 0.1 K. A known amount of pantoprazole sodium sesquihydrate drug (solute) has been used in the equilibrium cell to measure the solubility data. The capacity of the cell is 70 mL. A magnetic stirrer was mounted with the cell to measure the solubility data. A magnetic stirrer that is mounted with the equilibrium cell helps in attaining equilibrium between the solute and the ScCO2. To confirm equilibrium attainment, the experiments are done with a fresh sample at specified temperature and pressure at various time intervals (5 min, 10 min, 20 min, 30 min, 40 min, 50 min and 60 min) and the solubility readings are recorded. It is observed that the solubility is independent of time after 30 min. Thus, for correct results after 60 min, samples are considered for analysis. After equilibrium, 600 μL of a saturated sample is collected in dematerialized water (DM water's conductivity is 1μS/cm) via a 6-way port, two-status valve. More details are readily available elsewhere[30],[31]. This experimental setup has already been validated in the previous work with alpha-tocopherol and naphthalene. Each experiment is carried out in triplicate. Spectrophotometer (UV-Visible, Model UNICO-4802) is utilized to quantify the pantoprazole sodium sesquihydrate solubility. The drug test samples were prepared by dissolving known weights of drug in known volume of DM water. Pantoprazole sodium sesquihydrate samples were analyzed at 290 nm and calibrations curve was established, indicating R^2 of 0.99. The following sets of equations are used to calculate equilibrium mole fraction, y2, and solubility, S (g/L), in ScCO2:1 y2=nsolute/nsolute+nCO2, where:2 […]/mol,and 3 […]/mol 4 […]) where nsolute and nCO2 are moles of solute (Pantoprazole sodium sesquihydrate) and CO2 in the sampling loop, respectively, Cs is the solute concentration (g/L), Ms and MCO2 are molecular weights of the solute and CO2 and S (g/L) is the equilibrium solubility.
# [2] = Thermodynamic properties calculated from constants of the Chrastil, reformulated Chrastil and Bartle solubility models; type: physicochemical
# Excerpt: It is the first solvate complex model and correlates solubility as a function of supercritical fluid density and temperature as:18 y2=ρ1^κ-1[…] where κ and E0-E1 are model constants. Since Eq. (13) is dimensionally inconsistent[24],[26],[39], it is dimensionally corrected and known as Reformulated […] model:19 y2=[…] where κ^' and E0-E1 are model constants. It is one of the successful empirical models and correlates solubility as a function of temperature, supercritical fluid density and total pressure as:20 […] where G0-G2 are model constants. From parameter G1 , the vaporization enthalpy is ΔvapH=-G1R in which R is universal gas constant. The new solution model proposed in this work has three adjustable parameters ( ΔCp , a11 and a22 ). For regression, these parameters are treated as temperature dependent and temperature independent. Although conceptually, these parameters are temperature dependent[43],[44], however, in literature, these parameters are handled as temperature independent over a small temperature range[45]. Therefore, both temperature dependent and independent results are reported in this study. For regression, melting temperature and molar volume of pantoprazole sodium sesquihydrate are needed. The required melting temperature is obtained from the material's source and the molar volume of the solid pantoprazole sodium sesquihydrate is calculated using Immirzi and […] method. […] The proposed model correlates the data less than 14.9% and 16.23% in terms of AARD% for temperature dependent and independent cases, respectively. […] The correlations of the solubility data with temperature dependent parameters are better than temperature independent parameters. […], Sodeifian et al., and […] models correlate the solubility data. The correlations of the data are quite satisfactory for […] model compared to […] and Sodeifian models. From the conventional model constants, the thermodynamic properties, namely total heat of enthalpy of vaporization and solvation are calculated and reported in Table 6. […]
structure (smiles),measurement,setting,value
"COc1ccnc(C[S+]([O-])c2nc3ccc(OC(F)F)cc3[nH]2)c1OC (stereo not shown) [pantoprazole sodium sesquihydrate, Pantoprazole sodium sesquihydrate]",y2 × 10^4 (mole fraction),"[1]; in ScCO2, 308 K, 12 MPa, ScCO2 density 769 kg/m^3",0.0648 mole fraction
same,y2 × 10^4 (mole fraction),"[1]; in ScCO2, 308 K, 15 MPa, ScCO2 density 817 kg/m^3",0.0764 mole fraction
same,y2 × 10^4 (mole fraction),"[1]; in ScCO2, 308 K, 18 MPa, ScCO2 density 849 kg/m^3",0.0921 mole fraction
same,y2 × 10^4 (mole fraction),"[1]; in ScCO2, 308 K, 21 MPa, ScCO2 density 875 kg/m^3",0.0958 mole fraction
same,y2 × 10^4 (mole fraction),"[1]; in ScCO2, 308 K, 24 MPa, ScCO2 density 896 kg/m^3",0.1239 mole fraction
same,y2 × 10^4 (mole fraction),"[1]; in ScCO2, 308 K, 27 MPa, ScCO2 density 914 kg/m^3",0.1489 mole fraction
same,y2 × 10^4 (mole fraction),"[1]; in ScCO2, 318 K, 12 MPa, ScCO2 density 661 kg/m^3",0.0548 mole fraction
same,y2 × 10^4 (mole fraction),"[1]; in ScCO2, 318 K, 15 MPa, ScCO2 density 744 kg/m^3",0.0580 mole fraction
same,y2 × 10^4 (mole fraction),"[1]; in ScCO2, 318 K, 18 MPa, ScCO2 density 791 kg/m^3",0.0990 mole fraction
same,y2 × 10^4 (mole fraction),"[1]; in ScCO2, 318 K, 21 MPa, ScCO2 density 824 kg/m^3",0.1192 mole fraction
same,y2 × 10^4 (mole fraction),"[1]; in ScCO2, 318 K, 24 MPa, ScCO2 density 851 kg/m^3",0.1436 mole fraction
same,y2 × 10^4 (mole fraction),"[1]; in ScCO2, 318 K, 27 MPa, ScCO2 density 872 kg/m^3",0.1930 mole fraction
same,y2 × 10^4 (mole fraction),"[1]; in ScCO2, 328 K, 12 MPa, ScCO2 density 509 kg/m^3",0.0381 mole fraction
same,y2 × 10^4 (mole fraction),"[1]; in ScCO2, 328 K, 15 MPa, ScCO2 density 656 kg/m^3",0.0498 mole fraction
same,y2 × 10^4 (mole fraction),"[1]; in ScCO2, 328 K, 18 MPa, ScCO2 density 725 kg/m^3",0.1388 mole fraction
same,y2 × 10^4 (mole fraction),"[1]; in ScCO2, 328 K, 21 MPa, ScCO2 density 769 kg/m^3",0.1579 mole fraction
same,y2 × 10^4 (mole fraction),"[1]; in ScCO2, 328 K, 24 MPa, ScCO2 density 802 kg/m^3",0.2354 mole fraction
same,y2 × 10^4 (mole fraction),"[1]; in ScCO2, 328 K, 27 MPa, ScCO2 density 829 kg/m^3",0.3106 mole fraction
same,y2 × 10^4 (mole fraction),"[1]; in ScCO2, 338 K, 12 MPa, ScCO2 density 388 kg/m^3",0.0301 mole fraction
same,y2 × 10^4 (mole fraction),"[1]; in ScCO2, 338 K, 15 MPa, ScCO2 density 557 kg/m^3",0.0403 mole fraction
same,y2 × 10^4 (mole fraction),"[1]; in ScCO2, 338 K, 18 MPa, ScCO2 density 652 kg/m^3",0.1548 mole fraction
same,y2 × 10^4 (mole fraction),"[1]; in ScCO2, 338 K, 21 MPa, ScCO2 density 710 kg/m^3",0.1938 mole fraction
same,y2 × 10^4 (mole fraction),"[1]; in ScCO2, 338 K, 24 MPa, ScCO2 density 751 kg/m^3",0.3408 mole fraction
same,y2 × 10^4 (mole fraction),"[1]; in ScCO2, 338 K, 27 MPa, ScCO2 density 783 kg/m^3",0.4634 mole fraction
same,cross over pressure,"[1]; solubility isotherms 308-338 K in ScCO2, from Fig. 2",around 16.0 MPa
same,"Enthalpy of solvation, ΔHsol",[2]; Bartle et al. and Chrastil models combination (difference of ΔHvap and ΔHtotal),−15.829 kJ/mol and −15.829^d kJ/mol
same,Enthalpy of vaporization ΔHvap,[2]; from Bartle et al. model (ΔvapH = −G1R),~75.261^c (approximate value) kJ/mol
same,"Total enthalpy, ΔHtotal",[2]; from Reformulated Chrastil model,39.832^b kJ/mol
